Results from patent US11014911B2, “CDK2 inhibitors” (Pfizer Inc., priority 2019, dated 2021).

Target: CDK2/Cyclin E1 full length (Homo sapiens (Human), UniProt P24941)
Test: CDK2/Cyclin E1 full length mobility shift assay
Format: biochemical

Compound	Ki [nM]
CC(CC(F)F)NC(=O)O[C@@H]1CC[C@H](c2cc(NC(=O)Cc3cnn(C)c3)n[nH]2)C1 (single isomer, unassigned) [Example 387]	0.3
C[C@@H](NC(=O)O[C@@H]1CC[C@H](c2cc(NC(=O)Cc3ccon3)n[nH]2)C1)C1CC1 [Example 467, (1R,3S)-3-{3-[(1,2-oxazol-3-ylacetyl)amino]-1H-pyrazol-5-yl}cyclopentyl [(1R)-1-cyclopropylethyl]carbamate]	1.2
O=C(Cc1cc(F)cc(F)c1)Nc1cc([C@@H]2CC[C@H](OC(=O)NC[C@H]3CCCO3)C2)[nH]n1 [Example 498, (1S,3R)-3-(3-{[(3,5-difluorophenyl)acetyl]amino}-1H-pyrazol-5-yl)cyclopentyl [(2R)-tetrahydrofuran-2-ylmethyl]carbamate]	4.28
CC1(NC(=O)O[C@@H]2CC[C@H](c3cc(NC(=O)Cc4ccccn4)n[nH]3)C2)CC1 [Example 420, (1R,3S)-3-{3-[(pyridin-2-ylacetyl)amino]-1H-pyrazol-5-yl}cyclopentyl (1-methylcyclopropyl)carbamate]	0.54
CC[C@H](C)NC(=O)O[C@@H]1CC[C@H](c2cc(NC(=O)Cc3ccc(C(F)(F)F)cn3)n[nH]2)C1 [Example 360, (1R,3S)-3-[3-({[5-(trifluoromethyl)pyridin-2-yl]acetyl}amino)-1H-pyrazol-5-yl]cyclopentyl (2S)-butan-2-ylcarbamate]	1.46
CC(C)(O)CNC(=O)O[C@@H]1CC[C@H](c2cc(NC(=O)Cc3cc(F)cc(F)c3)n[nH]2)C1 [Example 574, (1R,3S)-3-(3-{[(3,5-difluorophenyl)acetyl]amino}-1H-pyrazol-5-yl)cyclopentyl (2-hydroxy-2-methylpropyl)carbamate]	4.07
O=C(Cc1cc(F)cc(F)c1)Nc1cc([C@@H]2CC[C@H](OC(=O)NC[C@@H]3CCCO3)C2)[nH]n1 [Example 499, (1S,3R)-3-(3-{[(3,5-difluorophenyl)acetyl]amino}-1H-pyrazol-5-yl)cyclopentyl [(2S)-tetrahydrofuran-2-ylmethyl]carbamate]	2.55
COc1cnc(CC(=O)Nc2cc([C@H]3CC[C@@H](OC(=O)N4CCC4(C)C)C3)[nH]n2)cn1 [Example 602, (1R,3S)-3-(3-{[(5-methoxypyrazin-2-yl)acetyl]amino}-1H-pyrazol-5-yl)cyclopentyl 2,2-dimethylazetidine-1-carboxylate]	0.3
COc1cnc(CC(=O)Nc2cc([C@H]3CC[C@@H](OC(=O)N[C@@H](C)C4CC4)C3)[nH]n2)cn1 [Example 106]	0.76
Cc1nnc(CC(=O)Nc2cc([C@H]3CC[C@@H](OC(=O)NC4(C)CCC4)C3)[nH]n2)s1 [Example 18, (1R,3S)-3-(3-{[(5-methyl-1,3,4-thiadiazol-2-yl)acetyl]amino}-1H-pyrazol-5-yl)cyclopentyl (1-methylcyclobutyl)carbamate]	0.17
CCC1(NC(=O)O[C@@H]2CC[C@H](c3cc(NC(=O)Cc4cnc(OC)cn4)n[nH]3)C2)CC1 [Example 450, (1R,3S)-3-(3-{[(5-methoxypyrazin-2-yl)acetyl]amino}-1H-pyrazol-5-yl)cyclopentyl (1-ethylcyclopropyl)carbamate]	0.38
Cc1cc(CC(=O)Nc2cc([C@H]3CC[C@@H](OC(=O)N[C@@H](C)C4CC4)C3)[nH]n2)on1 [Example 468, (1R,3S)-3-(3-{[(3-methyl-1,2-oxazol-5-yl)acetyl]amino}-1H-pyrazol-5-yl)cyclopentyl [(1S)-1-cyclopropylethyl]carbamate]	0.35
CC1(NC(=O)O[C@@H]2CC[C@H](c3cc(NC(=O)Cc4cscn4)n[nH]3)C2)CC1 [Example 423, (1R,3S)-3-{3-[(1,3-thiazol-4-ylacetyl)amino]-1H-pyrazol-5-yl}cyclopentyl (1-methylcyclopropyl)carbamate]	0.6
CC(CO)CNC(=O)O[C@@H]1CC[C@H](c2cc(NC(=O)Cc3cc(F)cc(F)c3)n[nH]2)C1 (single isomer, unassigned) [Example 538]	2.72
COCc1cc(C(=O)Nc2cc([C@H]3CC[C@@H](OC(=O)NC4(CC(F)(F)F)CC4)C3)[nH]n2)n(C)n1 [Example 457, (1R,3S)-3-[3-({[3-(methoxymethyl)-1-methyl-1H-pyrazol-5-yl]carbonyl}amino)-1H-pyrazol-5-yl]cyclopentyl [1-(2,2,2-trifluoroethyl)cyclopropyl] carbamate]	0.38
Cc1ncc(CC(=O)Nc2cc([C@H]3CC[C@@H](OC(=O)NC(C)C)C3)[nH]n2)s1 [Example 2, (1R,3S)-3-(3-{[(2-methyl-1,3-thiazol-5-yl)acetyl]amino}-1H-pyrazol-5-yl)cyclopentyl propan-2-ylcarbamate]	0.31
CN1CC(CNC(=O)O[C@H]2CC[C@@H](c3cc(NC(=O)Cc4cc(F)cc(F)c4)n[nH]3)C2)OCC1=O (single isomer, unassigned) [Example 584]	3.84
O=C(Cc1cc(F)cc(F)c1)Nc1cc([C@@H]2CC[C@H](OC(=O)NC[C@H]3C[C@@H](O)C3)C2)[nH]n1 [Example 575, (1S,3R)-3-(3-{[(3,5-difluorophenyl)acetyl]amino}-1H-pyrazol-5-yl)cyclopentyl [(cis-3-hydroxycyclobutyl)methyl] carbamate]	2.28
Cc1coc(CC(=O)Nc2cc([C@H]3CC[C@@H](OC(=O)N[C@H](C)CC(F)(F)F)C3)[nH]n2)n1 [Example 395, (1R,3S)-3-(3-{[(4-methyl-1,3-oxazol-2-yl)acetyl]amino}-1H-pyrazol-5-yl)cyclopentyl [(2R)-4,4,4-trifluorobutan-2-yl]carbamate]	1.43
CCC1CCN1C(=O)O[C@@H]1CC[C@H](c2cc(NC(=O)Cc3ncc(C)o3)n[nH]2)C1 (single isomer, unassigned) [Example 599]	1.38
Cc1cnc(CC(=O)Nc2cc([C@H]3CC[C@@H](OC(=O)NCCC(F)(F)F)C3)[nH]n2)s1 [Example 221, (1R,3S)-3-(3-{[(5-methyl-1,3-thiazol-2-yl)acetyl]amino}-1H-pyrazol-5-yl)cyclopentyl (3,3,3-trifluoropropyl)carbamate]	1.73
C[C@H]1CCC[C@H]1NC(=O)O[C@@H]1CC[C@H](c2cc(NC(=O)Cc3ccno3)n[nH]2)C1 [Example 461, (1R,3S)-3-{3-[(1,2-oxazol-5-ylacetyl)amino]-1H-pyrazol-5-yl}cyclopentyl [(1R,2S)-2-methylcyclopentyl]carbamate]	1.75
Cc1csc(CC(=O)Nc2cc([C@H]3CC[C@@H](OC(=O)N4CCC[C@@H]4C)C3)[nH]n2)n1 [Example 637, (1R,3S)-3-(3-{[(4-methyl-1,3-thiazol-2-yl)acetyl]amino}-1H-pyrazol-5-yl)cyclopentyl (2S)-2-methylpyrrolidine-1-carboxylate]	1.47
Cc1cc(CC(=O)Nc2cc([C@H]3CC[C@@H](OC(=O)NC4(CC(F)(F)F)CC4)C3)[nH]n2)on1 [Example 453, (1R,3S)-3-(3-{[(3-methyl-1,2-oxazol-5-yl)acetyl]amino}-1H-pyrazol-5-yl)cyclopentyl [1-(2,2,2-trifluoroethyl)cyclopropyl]carbamate]	0.29
C[C@H](NC(=O)O[C@@H]1CC[C@H](c2cc(NC(=O)Cc3ccon3)n[nH]2)C1)C1CC1 [Example 466, (1R,3S)-3-{3-[(1,2-oxazol-3-ylacetyl)amino]-1H-pyrazol-5-yl}cyclopentyl [(1S)-1-cyclopropylethyl]carbamate]	1.02
